{"source": "patent US20040097574A1", "about": "“Glucocorticoid mimetics, methods of making them, pharmaceutical compositions, and uses thereof” (Boehringer Ingelheim Pharmaceuticals, Inc., priority 2002, published 2004)", "key": {"[1]": {"system": "glucocorticoid receptor function", "assay": "Glucocorticoid receptor function, one or more of the above assays (agonist/antagonist/modulator activity)", "assay_type": "cell-based", "settings": "in one or more of the above assays", "protocol": "B. Glucocorticoid Receptor Cell Assays\n1. Induction of Aromatase in Fibroblasts (Cell Assay for Transactivation)\nDexamethasone, a synthetic ligand to the glucocorticoid receptor (GR), induces expression of aromatase in human foreskin fibroblast cells. The activity of aromatase is measured by the conversion of testosterone to estradiol in culture media.\nOn the day of the experiment, the media in the wells is replaced with fresh media. Cells are treated with test compounds to final concentrations of 10^−5 M to 10^−8 M, and testosterone to a final concentration of 300 ng/mL. Each well has a total volume of 100 μL. Samples are made in duplicates. Control wells include: (a) wells that receive testosterone only, and (b) wells that receive testosterone plus 2 μM of dexamethasone to provide maximum induction of aromatase. Plates are incubated at 37° C. overnight (15 to 18 hours), and supernatants are harvested at the end of incubation. […] The amount of estradiol is inversely proportional to the ELISA signals in each well. The extent of aromatase induction by test compounds is expressed as a relative percentage to dexamethasone. EC50 values of test compounds are derived by non-linear curve fitting.\n2. Inhibition of IL-6 Production in Fibroblasts (Cell Assay for Transrepression)\nHuman foreskin fibroblast cells produce IL-6 in response to stimulation by pro-inflammatory cytokine IL-1.\nOn the next day, media in the wells is replaced with fresh media. Cells are treated with IL-1 (rhIL-1α, R&D Systems Cat. No. 200-LA) to a final concentration of 1 ng/mL, and with test compounds to final concentrations of 10^−5 M to 10^−8 M, in a total volume of 200 μL per well. Samples are done in duplicates. […] Positive control wells receive IL-1 only and represent maximum (or 100%) amount of IL-6 production. Plates are incubated at 37° C. overnight (15 to 18 hours), and supernatants are harvested at the end of incubation. IL-6 levels in the supernatants are determined by the ELISA kits for IL-6 (MedSystems Diagnostics GmbH, Vienna, Austria, Cat. No. BMS213TEN) according to manufacture's instructions. The extent of inhibition of IL-6 by test compounds is expressed in percentage relative to positive controls. IC50 values of test compounds are derived by non-linear curve fitting.\nEvaluation of agonist or antagonist activity of compounds binding to the glucocorticoid receptor may be determined by any of the assays.\n3. Modulation of Tyrosine Aminotransferase (TAT) Induction in Rat Hepatoma Cells\nTesting of compounds for agonist or antagonist activity in induction of tyrosine aminotransferase (TAT) in rat hepatoma cells.\nH4-II-E-C3 cells were incubated overnight in 96 well plates (20,000 cells/100 μL/well) in MEM medium containing 10% heat inactivated FBS and 1% nonessential amino acids. On the next day, cells were stimulated with the indicated concentrations of dexamethasone or test compound (dissolved in DMSO, final DMSO concentration 0.2%) for 18 hours. Control cells were treated with 0.2% DMSO. After 18 hours, the cells were lysed in a buffer containing 0.1% Triton X-100 and the TAT activity was measured in a photometric assay using tyrosine and alpha-ketoglutarate as substrates.\nFor measuring antagonist activity, the hepatoma cells were pre-stimulated by addition of dexamethasone (concentration ranges from 3×10^−9 M to 3×10^−8 M) shortly before the test compound was applied to the cells.\n4. Modulation of MMTV-Luc Induction in HeLa Cells\nTesting of compounds for agonist or antagonist activity in stimulation of MMTV-(mouse mammary tumor virus) promoter in HeLa cells.\nCells were cultured overnight in DMEM medium without phenol red, supplemented with 3% CCS (charcoal treated calf serum) and then transferred to 96 well plates (15,000 cells/100 μL/well)."}, "[2]": {"molecular_target": "T1, human glucocorticoid receptor (GR) complex (Homo sapiens, UniProt P04150)", "T1 construct": "made in house; host or cells: insect expression system (baculovirus lysate)", "T1 sequence (P04150 1-777)": "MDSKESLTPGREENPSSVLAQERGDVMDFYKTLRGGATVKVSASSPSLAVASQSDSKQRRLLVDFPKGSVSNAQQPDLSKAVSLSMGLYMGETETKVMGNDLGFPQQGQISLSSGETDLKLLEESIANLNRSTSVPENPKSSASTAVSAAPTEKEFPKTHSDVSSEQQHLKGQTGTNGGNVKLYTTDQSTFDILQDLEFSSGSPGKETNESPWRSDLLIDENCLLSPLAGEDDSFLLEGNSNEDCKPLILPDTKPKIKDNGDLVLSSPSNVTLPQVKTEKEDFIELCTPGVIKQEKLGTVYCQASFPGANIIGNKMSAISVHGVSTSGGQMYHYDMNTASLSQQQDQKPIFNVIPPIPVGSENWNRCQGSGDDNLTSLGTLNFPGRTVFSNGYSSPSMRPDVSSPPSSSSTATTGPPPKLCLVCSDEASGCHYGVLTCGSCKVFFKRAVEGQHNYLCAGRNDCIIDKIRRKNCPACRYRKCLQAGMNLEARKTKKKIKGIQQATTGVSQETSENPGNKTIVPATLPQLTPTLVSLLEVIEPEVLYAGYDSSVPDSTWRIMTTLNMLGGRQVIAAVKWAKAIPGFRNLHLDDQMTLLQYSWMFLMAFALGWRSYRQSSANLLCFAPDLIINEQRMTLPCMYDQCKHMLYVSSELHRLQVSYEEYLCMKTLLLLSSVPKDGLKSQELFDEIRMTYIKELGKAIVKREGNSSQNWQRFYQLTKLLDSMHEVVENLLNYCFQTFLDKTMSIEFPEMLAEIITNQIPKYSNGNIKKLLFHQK", "assay": "Glucocorticoid receptor competitive binding assay (fluorescence polarization)", "settings": "competition with TAMRA-labeled dexamethasone; read-out: potent activity in the GR binding assay (IC50)", "protocol": "Compounds of the invention were evaluated for binding to the steroid receptor by a fluorescence polarization competitive binding assay. Detailed descriptions for preparation of recombinant glucocorticoid receptor (GR) complex used in the assay is described in U.S. Patent Application Publication No. US 2003/0017503, filed May 20, 2002, and the corresponding U.S. provisional application No. 60/291,877, filed May 18, 2001, each of which is incorporated herein by reference in its entirety. Preparation of the tetramethyl rhodamine (TAMRA)-labeled dexamethasone probe was accomplished using a standard literature procedure (M. Pons et al., J. Steroid Biochem., 1985, 22, pp. 267-273).\nA. Glucocorticoid Receptor Competitive Binding Assay\nStep 1. Characterization of the Fluorescent Probe\nThe wavelengths for maximum excitation and emission of the fluorescent probe should first be measured. An example of such a probe is rhodamine (TAMRA)-labeled dexamethasone.\nThe affinity of the probe for the steroid receptor was then determined in a titration experiment. The fluorescence polarization value of the probe in assay buffer was measured on an SLM-8100 fluorometer using the excitation and emission maximum values described above. Aliquots of expression vector lysate were added and fluorescence polarization was measured after each addition until no further change in polarization value was observed. Non-linear least squares regression analysis was used to calculate the dissociation constant of the probe from the polarization values obtained for lysate binding to the probe.\nStep 2. Screening for Inhibitors of Probe Binding\nThis assay uses fluorescence polarization (FP) to quantitate the ability of test compounds to compete with tetramethyl rhodamine (TAMRA)-labeled dexamethasone for binding to a human glucocorticoid receptor (GR) complex prepared from an insect expression system. The assay buffer was: 10 mM TES, 50 mM KCl, 20 mM Na2MoO4.2H2O, 1.5 mM EDTA, 0.04% w/v CHAPS, 10% v/v glycerol, 1 mM dithiothreitol, pH 7.4. Test compounds were dissolved to 1 mM in neat DMSO and then further diluted to 10x assay concentration in assay buffer supplemented with 10% v/v DMSO. Test compounds were serially diluted at 10x assay concentrations in 10% DMSO-containing buffer in 96-well polypropylene plates. Binding reaction mixtures were prepared in 96-well black Dynex microtiter plates by sequential addition of the following assay components to each well: 15 μL of 10x test compound solution, 85 μL of GR-containing baculovirus lysate diluted 1:170 in assay buffer, and 50 μL of 15 nM TAMRA-labeled dexamethasone. Positive controls were reaction mixtures containing no test compound; negative controls (blanks) were reaction mixtures containing 0.7 μM to 2 μM dexamethasone. The binding reactions were incubated for 1 hour at room temperature and then read for fluorescence polarization in the LJL Analyst set to 550 nm excitation and 580 nm emission, with the Rhodamine 561 dichroic mirror installed. IC50 values were determined by iterative non-linear curve fitting of the FP signal data to a 4-parameter logistic equation."}}}
{"smiles": "CC(Cc1c[nH]c2ccccc12)NS(=O)(=O)c1c(Cl)cc(Cl)cc1Cl", "note": "(centres unmarked) [2,4,6-Trichloro-N-[2-(1H-indol-3-yl)-1-methylethyl]benzenesulfonamide]", "values": [{"measurement": "activity as antagonists of the glucocorticoid receptor function", "setting": "[1]", "value": "activity as antagonists"}, {"measurement": "IC50", "setting": "[2]", "value": "≤ 0.1", "unit": "µM"}]}
{"smiles": "Cc1cc(C)c(S(=O)(=O)NC(C)Cc2c[nH]c3ccc(F)cc23)c(C)c1", "note": "(centres unmarked) [N-[2-(5-Fluoro-1H-indol-3-yl)-1-methylethyl]-2,4,6-trimethylbenzenesulfonamide]", "values": [{"measurement": "IC50", "setting": "[2]", "value": "≤ 0.1", "unit": "µM"}]}
{"smiles": "CCC(Cc1c[nH]c2ccccc12)NS(=O)(=O)c1c(Cl)cc(Cl)cc1Cl", "note": "(centres unmarked) [2,4,6-Trichloro-N-[1-(1H-indol-3-ylmethyl)propyl]benzenesulfonamide]", "values": [{"measurement": "IC50", "setting": "[2]", "value": "≤ 0.1", "unit": "µM"}]}
{"smiles": "CC(Cc1c[nH]c2ccccc12)NS(=O)(=O)c1c(Cl)cccc1Cl", "note": "(centres unmarked) [2,6-Dichloro-N-[2-(1H-indol-3-yl)-1-methylethyl]benzenesulfonamide]", "values": [{"measurement": "activity as antagonists of the glucocorticoid receptor function", "setting": "[1]", "value": "activity as antagonists"}]}
{"smiles": "CC(Cc1c[nH]c2ccccc12)NS(=O)(=O)c1c(Cl)sc(Cl)c1Br", "note": "(centres unmarked) [4-Bromo-2,5-dichlorothiophene-3-sulfonic acid [2-(1H-indol-3-yl)-1-methylethyl]amide]", "values": [{"measurement": "activity as antagonists of the glucocorticoid receptor function", "setting": "[1]", "value": "activity as antagonists"}, {"measurement": "IC50", "setting": "[2]", "value": "≤ 0.1", "unit": "µM"}]}
{"smiles": "CCC(Cc1c[nH]c2ccccc12)NS(=O)(=O)c1c(C)cc(C)cc1C", "note": "(centres unmarked) [N-[1-(1H-Indol-3-ylmethyl)propyl]-2,4,6-trimethylbenzenesulfonamide]", "values": [{"measurement": "IC50", "setting": "[2]", "value": "≤ 0.1", "unit": "µM"}]}
{"smiles": "Cc1cccc(Cl)c1S(=O)(=O)NC(C)Cc1c[nH]c2ccccc12", "note": "(centres unmarked) [2-Chloro-N-[2-(1H-indol-3-yl)-1-methylethyl]-6-methylbenzenesulfonamide]", "values": [{"measurement": "activity as antagonists of the glucocorticoid receptor function", "setting": "[1]", "value": "activity as antagonists"}]}
{"smiles": "Cc1cc(C)c(S(=O)(=O)NC(C)Cc2c[nH]c3ccccc23)c(C)c1", "note": "(centres unmarked) [N-[2-(1H-Indol-3-yl)-1-methylethyl]-2,4,6-trimethylbenzenesulfonamide]", "values": [{"measurement": "activity as an agonist of the glucocorticoid receptor function", "setting": "[1]", "value": "activity as an agonist"}, {"measurement": "IC50", "setting": "[2]", "value": "≤ 0.1", "unit": "µM"}]}
{"smiles": "CC(Cc1c[nH]c2ccccc12)NS(=O)(=O)c1c(C(C)C)cc(C(C)C)cc1C(C)C", "note": "(centres unmarked) [N-[2-(1H-Indol-3-yl)-1-methylethyl]-2,4,6-triisopropylbenzenesulfonamide]", "values": [{"measurement": "activity as antagonists of the glucocorticoid receptor function", "setting": "[1]", "value": "activity as antagonists"}, {"measurement": "IC50", "setting": "[2]", "value": "≤ 0.1", "unit": "µM"}]}
{"smiles": "Cc1cc(C)c(S(=O)(=O)NC(C)Cc2c[nH]c3cc(F)ccc23)c(C)c1", "note": "(centres unmarked) [N-[2-(6-Fluoro-1H-indol-3-yl)-1-methylethyl]-2,4,6-trimethylbenzenesulfonamide]", "values": [{"measurement": "IC50", "setting": "[2]", "value": "≤ 0.1", "unit": "µM"}]}
